The values below come from ChEMBL document CHEMBL4823282, “Novel Broad-Spectrum Antimicrobial Peptide Derived from Anoplin and Its Activity on Bacterial Pneumonia in Mice” (J Med Chem, 2021).

In series [1] the test system is Staphylococcus aureus. Description: Disruption of membrane integrity in Staphylococcus aureus ATCC 25923 assessed as membrane creeping at 1 times MIC incubated for 0.5 to 2 hrs by scanning electron microscopy. The note with it: time 0.5-2 hrs. It is filed as functional, organism-based.
Series [2] is described as follows: Stability in BALB/C mouse serum measured up to 1440 mins by HPLC analysis. It is filed as ADME, cell-free.
Series [3] has as its system Staphylococcus aureus. Nature of the series: Antibacterial activity against Staphylococcus aureus ATCC 25923 incubated with 0.2 to 0.02 ug/ml chymotrypsin for 6 hrs followed by bacterial addition and measured after 18 hrs by CLSI based broth dilution method. The note with it: dose 0.2-0.02 µg/ml. It is filed as functional, organism-based.
In series [4] the test system is Klebsiella pneumoniae. Description: Antibacterial activity against Klebsiella pneumoniae ATCC 700603 infected in BALB/C mouse assessed as reduction in bacterial load at 5 to 10 mg/kg, ip by hematoxylin and eosin staining based assay. It is filed as functional, organism-based. The note with it: dose 5-10 mg/kg.
The test system of series [5] is Cell membrane. Description: Induction of outer membrane permeabilization in Klebsiella pneumoniae ATCC 700603 measured within 1 mins by N-phenylnaphthylamine dye based fluorescent method. It is filed as subcellular. The note with it: Klebsiella pneumoniae 700603.
A short description of series [6]: Toxicity in BALB/C mouse assessed as effect on spleen at 19 mg/kg, ip administered as single dose by hematoxylin and eosin staining based assay. It is filed as organism-based. The note with it: in vivo.
For series [7], the system named is Cell membrane. Nature of the series: Disruption of membrane integrity in Klebsiella pneumoniae ATCC 700603 assessed as membrane shrinking at 1 times MIC measured within 0.5 to 2 hrs by scanning electron microscopy. It is filed as subcellular. The note with it: Klebsiella pneumoniae 700603, time 0.5-2 hrs.
The subject of series [8] is Klebsiella pneumoniae. Description: Antibacterial activity against Klebsiella pneumoniae ATCC 700603 incubated with 0.2 to 0.02 ug/ml trypsin for 6 hrs followed by bacterial addition and measured after 18 hrs by CLSI based broth dilution method. The note with it: dose 0.2-0.02 µg/ml, time 23.0 hrs. It is filed as functional, organism-based.
The nature of series [9]: Toxicity in BALB/C mouse assessed as effect on liver at 19 mg/kg, ip administered as single dose by hematoxylin and eosin staining based assay. It is filed as organism-based. The conditions noted are these: in vivo.
The nature of series [10]: Stability in BALB/C mouse serum assessed as compound degradation time measured up to 1440 mins by HPLC analysis. The note with it: 24 h. It is filed as ADME, cell-free.
Series [11] deals with Klebsiella pneumoniae. Nature of the series: Antibacterial activity against Klebsiella pneumoniae ATCC 700603 incubated with 0.2 to 0.02 ug/ml chymotrypsin for 6 hrs followed by bacterial addition and measured after 18 hrs by CLSI based broth dilution method. The conditions noted are these: dose 0.2-0.02 µg/ml, time 23.0 hrs. It is filed as functional, organism-based.
Series [12] deals with Klebsiella pneumoniae. Description: Antibacterial activity against Klebsiella pneumoniae ATCC 700603 infected in BALB/C mouse assessed as alveolar expansion at 5 mg/kg, ip by hematoxylin and eosin staining based assay. It is filed as functional, organism-based.
Series [13] in a line: Toxicity in BALB/C mouse assessed as mouse death at 15 to 25 mg/kg, ip measured after 24 hrs. It is filed as organism-based. The conditions noted are these: in vivo, dose 15-25 mg/kg.
For series [14], the system named is Escherichia coli. Nature of the series: Synergistic antibacterial activity against Escherichia coli ATCC 25922 at 2 times MIC incubated for 18 to 24 hrs in presence of 2 times MIC of gentamycin by broth microdilution assay based checkerboard assay. The conditions noted are these: time 18-24 hrs. It is filed as functional.
A short description of series [15]: Induction of nephrotoxicity in BALB/C mouse at 82 mg/kg, ip administered as single dose by hematoxylin and eosin staining based assay. The conditions noted are these: in vivo. It is filed as organism-based.
The test system of series [16] is Klebsiella pneumoniae. Nature of the series: Antibiofilm activity against Klebsiella pneumoniae ATCC 700603 incubated for 24 hrs by crystal violet staining based assay. It is filed as functional, organism-based.
The nature of series [17]: Toxicity in BALB/C mouse assessed as effect on heart at 19 mg/kg, ip administered as single dose by hematoxylin and eosin staining based assay. It is filed as organism-based. The note with it: in vivo.
Series [18] can be described thus: Induction of inflammation in BALB/C mouse at 82 mg/kg, ip administered as single dose by hematoxylin and eosin staining based assay. It is filed as organism-based. The note with it: in vivo.
The subject of another series is HK-2. Nature of the series: Cytotoxicity against human HK2 cells incubated for 12 hrs by MTT assay. It is filed as cell-based. The conditions noted are these: HK-2, 12 h.
Series [19] is described as follows: Toxicity in BALB/C mouse assessed as induction of tissue hemorrhage at 19 mg/kg, ip administered as single dose by hematoxylin and eosin staining based assay. It is filed as organism-based. The note with it: in vivo.
The test system of series [20] is Staphylococcus aureus. Nature of the series: Disruption of membrane integrity in Staphylococcus aureus ATCC 25923 assessed as content leakage at 1 times MIC incubated for 0.5 to 2 hrs by scanning electron microscopy. It is filed as functional, organism-based. The conditions noted are these: time 0.5-2 hrs.
The subject of series [21] is Klebsiella pneumoniae. Nature of the series: Disruption of membrane integrity in Klebsiella pneumoniae ATCC 700603 assessed as content leakage at 1 times MIC incubated for 0.5 to 2 hrs by scanning electron microscopy. It is filed as functional, organism-based. The conditions noted are these: time 0.5-2 hrs.
Series [22] relates to Pseudomonas aeruginosa. Description: Synergistic antibacterial activity against Pseudomonas aeruginosa ATCC 27853 at 2 times MIC incubated for 18 to 24 hrs in presence of 2 times MIC of polymyxin B by broth microdilution assay based checkerboard assay. It is filed as functional. The conditions noted are these: time 18-24 hrs.
For series [23], the system named is Pseudomonas aeruginosa. Nature of the series: Antibacterial activity against Pseudomonas aeruginosa ATCC 27853 at sub-MIC level after 15 passages by broth microdilution assay. It is filed as functional, organism-based.
The nature of series [24]: Toxicity in BALB/C mouse assessed as effect on kidney at 19 mg/kg, ip administered as single dose by hematoxylin and eosin staining based assay. It is filed as organism-based. The note with it: in vivo.
The subject of series [25] is Staphylococcus aureus. Nature of the series: Bactericidal activity against Staphylococcus aureus ATCC 25923 at 2MIC measured within 3 hrs by time-kill assay relative to control. It is filed as functional.
Series [26] has as its system Klebsiella pneumoniae. Description: Disruption of membrane integrity in Klebsiella pneumoniae ATCC 700603 assessed as pore formation at 1 times MIC incubated for 0.5 to 2 hrs by scanning electron microscopy. It is filed as functional, organism-based. The conditions noted are these: time 0.5-2 hrs.
A further series deals with A549. Nature of the series: Cytotoxicity against human A549 cells incubated for 12 hrs by MTT assay. The conditions noted are these: A549, 12 h. It is filed as cell-based.
Series [27] concerns Klebsiella pneumoniae. Nature of the series: Disruption of membrane integrity in Klebsiella pneumoniae ATCC 700603 assessed as membrane creeping at 1 times MIC incubated for 0.5 to 2 hrs by scanning electron microscopy. It is filed as functional, organism-based. The conditions noted are these: time 0.5-2 hrs.
In series [28] the test system is Staphylococcus aureus. Description: Disruption of membrane integrity in Staphylococcus aureus ATCC 25923 assessed as pore formation at 1 times MIC incubated for 0.5 to 2 hrs by scanning electron microscopy. It is filed as functional, organism-based. The conditions noted are these: time 0.5-2 hrs.
The nature of series [29]: Toxicity in BALB/C mouse infected with Klebsiella pneumoniae ATCC 700603 assessed as hepatic hemorrhage at 5 mg/kg, ip by hematoxylin and eosin staining based assay. It is filed as organism-based. The note with it: in vivo.
Series [30] deals with Klebsiella pneumoniae. Description: Antibiofilm activity against Klebsiella pneumoniae ATCC 700603 at 2 to 4 times MIC incubated for 24 hrs by crystal violet staining based assay. It is filed as functional, organism-based.
In series [31] the test system is Staphylococcus aureus. Nature of the series: Antibacterial activity against Staphylococcus aureus ATCC 25923 incubated with 2000 ug/ml trypsin for 6 hrs followed by bacterial addition and measured after 18 hrs by CLSI based broth dilution method. It is filed as functional, organism-based. The conditions noted are these: dose 2000.0 µg/ml, time 23.0 hrs.
In series [32] the test system is Klebsiella pneumoniae. Description: Antibacterial activity against Klebsiella pneumoniae ATCC 700603 infected in BALB/C mouse assessed as reduction in alveolar shrinkage at 5 mg/kg, ip by hematoxylin and eosin staining based assay. It is filed as functional, organism-based.
For series [33], the system named is Cell membrane. Description: Disruption of membrane integrity in Klebsiella pneumoniae ATCC 700603 assessed as membrane swelling at 1 times MIC incubated for 0.5 to 2 hrs by scanning electron microscopy. It is filed as subcellular. The conditions noted are these: Klebsiella pneumoniae 700603, time 0.5-2 hrs.
In series [34] the test system is Klebsiella pneumoniae. Description: Antibacterial activity against Klebsiella pneumoniae ATCC 700603 incubated with 2000 ug/ml trypsin for 6 hrs followed by bacterial addition and measured after 18 hrs by CLSI based broth dilution method. It is filed as functional, organism-based. The conditions noted are these: dose 2000.0 µg/ml, time 23.0 hrs.
For series [35], the system named is Escherichia coli. Description: Antibiofilm activity against Escherichia coli ATCC 25922 at 4 times MIC incubated for 24 hrs by crystal violet staining based assay. It is filed as functional, organism-based.

Active and inactive are the calls of the source. The calls are words filed in the database; no cut-off is given here. Where a SMILES comes first, the peptide text is derived from it. Bridges are numbered along the chain shown (N, C = ends). [ ]: non-standard residue; d: D form. The star is where a group is joined. X1 = CC[C@H](C)CCCCC(=O)*; Dab = NCC[C@H](N)C(=O)O

For `NCCCC[C@H](NC(=O)[C@H](CCCCN)NC(=O)[C@H](Cc1c[nH]c2ccccc12)NC(=O)[C@H](CCCCN)NC(=O)[C@H](CCCCN)NC(=O)[C@H](Cc1c[nH]c2ccccc12)NC(=O)[C@H](Cc1c[nH]c2ccccc12)NC(=O)[C@@H](N)CCCCN)C(=O)N[C@@H](Cc1c[nH]c2ccccc12)C(=O)N[C@@H](Cc1c[nH]c2ccccc12)C(N)=O` (H-KWWKKWKKWW-NH2), the outcome with Staphylococcus aureus [1], with Klebsiella pneumoniae [4], in the series with Cell membrane [7], in the series with Klebsiella pneumoniae [8], in the series on Klebsiella pneumoniae [11] and in the series on Klebsiella pneumoniae [12] was Active. For the same molecule, the result with Staphylococcus aureus [20], in the series with Klebsiella pneumoniae [21], with Pseudomonas aeruginosa [23], in the series with Klebsiella pneumoniae [26], in the series with Klebsiella pneumoniae [27] and with Staphylococcus aureus [28] was Active. The molecule also came in with a half-life in [2] of 50.1 min. In the series with Staphylococcus aureus [3], the result was inactive. The Activity result in the series on Cell membrane [5] is “Dose-Dependent Effect”; in series [6], “Toxic”; in [9], “Toxic”; in series [13], “Toxic”; in series [15] it was “Toxic”; in the series with Klebsiella pneumoniae [16], “Dose-Dependent Effect”. Moreover, the Activity result is recorded as “Toxic” in series [17]; “Toxic” in [18]; “Toxic” in [19]; “Toxic” in series [24]; 100% in the series with Staphylococcus aureus [25]. Also, the Time in series [10] was found to be 11.84 min. For the same molecule, the FIC with Escherichia coli [14] and with Pseudomonas aeruginosa [22] was 0.5625 in each case. The IC50 in the series with HK-2 is 63.5 µM; with A549 it was 87.5 µM.

As to `CC[C@H](C)CCCCC(=O)N[C@@H](CCN)C(=O)N[C@H](C(=O)N[C@@H](CCN)C(=O)N[C@H]1CCNC(=O)[C@H]([C@@H](C)O)NC(=O)[C@H](CCN)NC(=O)[C@H](CCN)NC(=O)[C@H](CC(C)C)NC(=O)[C@@H](Cc2ccccc2)NC(=O)[C@H](CCN)NC1=O)[C@@H](C)O` (X1-[Dab]T[Dab][Dab][Dab][dF]L[Dab][Dab]T; lactam 4-C), in series [29], the Activity result is listed as “Toxic”. Moreover, the result in the series on Klebsiella pneumoniae [30], with Staphylococcus aureus [31], with Cell membrane [33], in the series on Klebsiella pneumoniae [34] and in the series on Escherichia coli [35] was Active. Further, in the series with Klebsiella pneumoniae [32], the result was inactive.
